Data reported in patent US8063071B2 (GlaxoSmithKline, LLC, priority 2007, dated 2011).
Counter-ions that a name gives are not always drawn.

Columns and labels:
[1] = biological target: T1, Recombinant human IKKβ (residues 1-737) (Homo sapiens, UniProt O14920); assay: IKK2 assay (TR-FRET); assay type: biochemical; conditions: ATP 1 μM final, read-out: pIC50 against IKK2 (converted)
T1 construct: Recombinant human IKKβ (residues 1-737); GST (C); made in house
T1 sequence (O14920 1-737): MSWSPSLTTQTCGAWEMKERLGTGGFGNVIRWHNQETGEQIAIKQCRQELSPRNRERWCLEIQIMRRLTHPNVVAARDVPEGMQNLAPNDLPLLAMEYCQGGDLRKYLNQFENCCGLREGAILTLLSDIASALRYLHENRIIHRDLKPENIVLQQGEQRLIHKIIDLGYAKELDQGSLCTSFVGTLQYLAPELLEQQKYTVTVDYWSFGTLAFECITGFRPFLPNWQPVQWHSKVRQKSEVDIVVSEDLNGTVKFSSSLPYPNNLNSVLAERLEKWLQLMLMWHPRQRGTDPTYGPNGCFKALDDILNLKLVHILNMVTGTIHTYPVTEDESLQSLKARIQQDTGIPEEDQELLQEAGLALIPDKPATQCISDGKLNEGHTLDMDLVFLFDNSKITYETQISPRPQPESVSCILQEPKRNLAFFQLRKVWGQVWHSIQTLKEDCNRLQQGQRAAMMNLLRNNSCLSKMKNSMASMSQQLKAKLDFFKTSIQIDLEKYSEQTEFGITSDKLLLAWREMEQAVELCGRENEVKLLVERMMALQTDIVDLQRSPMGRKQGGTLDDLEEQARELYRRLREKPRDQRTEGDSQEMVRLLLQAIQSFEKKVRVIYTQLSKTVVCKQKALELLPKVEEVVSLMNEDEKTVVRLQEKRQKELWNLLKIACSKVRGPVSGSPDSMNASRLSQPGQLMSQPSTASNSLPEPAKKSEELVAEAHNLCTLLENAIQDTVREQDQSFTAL
Method in brief: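 Baculovirus-expressed C-terminal GST-tagged IKKβ (0.5-5 nM final) in HEPES pH 7.4, MgCl2, CHAPS, DTT, BSA with 1.7% DMSO; 25 nM GST-IB substrate and 1 μM ATP, 15 min at room temperature. EDTA stop; phospho-Ser32/36 detected by Eu-antibody/APC-anti-GST TR-FRET, 665/620 nm ratio.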

[2] = tested on: human monocyte stimulated cytokine production (TNF-α); assay: Monocyte assay (LPS-stimulated TNF-α production); assay type: cell-based; conditions: 24 h, 200 ng/mL LPS, TNF-α by ELISA
Method in brief: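 Human CD14+ monocytes were purified from blood and plated at 1×10^6 cells/mL in RPMI 1640 with 10% FBS. Compound was added 30 min before stimulation with 200 ng/mL LPS (0.1% DMSO final), followed by 24 hrs at 37 C. Supernatant TNF-α was measured by ELISA, and viability by trypan blue exclusion.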

Row | IC50 [1] [µM] | IC50 [2] [µM] | Structure (SMILES)
1 | ≤ 10 | > 1 | CCS(=O)(=O)N1CCC(c2c[nH]c3c(C(N)=O)cc(-c4ccc(N5CCOCC5)nn4)cc23)CC1 [Example 301, 3-[1-(ethylsulfonyl)-4-piperidinyl]-5-[6-(4-morpholinyl)-3-pyridazinyl]-1H-indole-7-carboxamide trifluoroacetate]
2 | ≤ 10 | > 1 | CCS(=O)(=O)N1CCC(c2c[nH]c3c(C(N)=O)cc(-c4ccc(N5CCCC5)nn4)cc23)CC1 [Example 302, 3-[1-(ethylsulfonyl)-4-piperidinyl]-5-[6-(1-pyrrolidinyl)-3-pyridazinyl]-1H-indole-7-carboxamide trifluoroacetate]
3 | ≤ 10 | > 1 | CCS(=O)(=O)N1CCC(c2c[nH]c3c(C(N)=O)cc(-c4ccccc4CNC)cc23)CC1 [Example 303, 3-[1-(ethylsulfonyl)-4-piperidinyl]-5-{2-[(methylamino)methyl]phenyl}-1H-indole-7-carboxamide trifluoroacetate]
4 | ≤ 10 | ≤ 1.5 | CCS(=O)(=O)N1CCC(c2c[nH]c3c(C(N)=O)cc(-c4cccc(CNC[C@H]5CCCO5)c4)cc23)CC1 [Example 306, 3-[1-(ethylsulfonyl)-4-piperidinyl]-5-[3-({[(2R)-tetrahydro-2-furanylmethyl]amino}methyl)phenyl]-1H-indole-7-carboxamide trifluoroacetate]
5 | ≤ 10 | ≤ 1.5 | CCS(=O)(=O)N1CCC(c2c[nH]c3c(C(N)=O)cc(-c4cccc(CNC[C@@H]5CCCO5)c4)cc23)CC1 [Example 307, 3-[1-(ethylsulfonyl)-4-piperidinyl]-5-[3-({[(2S)-tetrahydro-2-furanylmethyl]amino}methyl)phenyl]-1H-indole-7-carboxamide trifluoroacetate]
6 | ≤ 10 | ≤ 1.5 | CCC(C)CNCc1cccc(-c2cc(C(N)=O)c3[nH]cc(C4CCN(S(=O)(=O)CC)CC4)c3c2)c1 (centres unmarked) [Example 309, 3-[1-(ethylsulfonyl)-4-piperidinyl]-5-(3-{[(2-methylbutyl)amino]methyl}phenyl)-1H-indole-7-carboxamide]
7 | ≤ 10 | ≤ 1.5 | CC[C@H](C)CNCc1cccc(-c2cc(C(N)=O)c3[nH]cc(C4CCN(S(=O)(=O)CC)CC4)c3c2)c1 [Example 310, 3-[1-(ethylsulfonyl)-4-piperidinyl]-5-[3-({[(2S)-2-methylbutyl]amino}methyl)phenyl]-1H-indole-7-carboxamide]

The remaining lines, values behind:

Row | Structure (SMILES) | IC50 [1] [µM] | IC50 [2] [µM]
8 | CCS(=O)(=O)N1CCC(c2c[nH]c3c(C(N)=O)cc(-c4cccc(CNCc5cccs5)c4)cc23)CC1 [Example 304, 3-[1-(ethylsulfonyl)-4-piperidinyl]-5-(3-{[(2-thienylmethyl)amino]methyl}phenyl)-1H-indole-7-carboxamide trifluoroacetate] | ≤ 10 | ≤ 1.5
9 | CCS(=O)(=O)N1CCC(c2c[nH]c3c(C(N)=O)cc(-c4cccc(CNCc5ccc(C)o5)c4)cc23)CC1 [Example 305, 3-[1-(ethylsulfonyl)-4-piperidinyl]-5-[3-({[(5-methyl-2-furanyl)methyl]amino}methyl)phenyl]-1H-indole-7-carboxamide trifluoroacetate] | ≤ 10 | ≤ 1.5
10 | CCS(=O)(=O)N1CCC(c2c[nH]c3c(C(N)=O)cc(-c4cccc(CNCC(C)(C)C)c4)cc23)CC1 [Example 308, 5-(3-{[(2,2-dimethylpropyl)amino]methyl}phenyl)-3-[1-(ethylsulfonyl)-4-piperidinyl]-1H-indole-7-carboxamide trifluoroacetate] | ≤ 10 | ≤ 1.5
11 | CCS(=O)(=O)N1CCC(c2c[nH]c3c(C(N)=O)cc(-c4cccc(CN[C@H](C)C(C)(C)C)c4)cc23)CC1 [Example 311, 3-[1-(ethylsulfonyl)-4-piperidinyl]-5-[3-({[(1R)-1,2,2-trimethylpropyl]amino}methyl)phenyl]-1H-indole-7-carboxamide] | ≤ 10 | ≤ 1.5
12 | CCS(=O)(=O)N1CCC(c2c[nH]c3c(C(N)=O)cc(-c4cc(F)cc(CNC[C@@H]5CCCO5)c4)cc23)CC1 [Example 312, 3-[1-(ethylsulfonyl)-4-piperidinyl]-5-[3-fluoro-5-({[(2S)-tetrahydro-2-furanylmethyl]amino}methyl)phenyl]-1H-indole-7-carboxamide trifluoroacetate] | ≤ 10 | ≤ 1.5
13 | CCS(=O)(=O)N1CCC(c2c[nH]c3c(C(N)=O)cc(-c4cc(F)cc(CNC[C@H]5CCCO5)c4)cc23)CC1 [Example 313, 3-[1-(ethylsulfonyl)-4-piperidinyl]-5-[3-fluoro-5-({[(2R)-tetrahydro-2-furanylmethyl]amino}methyl)phenyl]-1H-indole-7-carboxamide trifluoroacetate] | ≤ 10 | ≤ 1.5
14 | CCS(=O)(=O)N1CCC(c2c[nH]c3c(C(N)=O)cc(-c4cc(F)cc(CN[C@@H](C)C(C)C)c4)cc23)CC1 [Example 314, 5-[3-({[(1S)-1,2-dimethylpropyl]amino}methyl)-5-fluorophenyl]-3-[1-(ethylsulfonyl)-4-piperidinyl]-1H-indole-7-carboxamide] | ≤ 10 | ≤ 1.5
15 | CCS(=O)(=O)N1CCC(c2c[nH]c3c(C(N)=O)cc(-c4cc(F)cc(CN[C@H](C)C(C)C)c4)cc23)CC1 [Example 315, 5-[3-({[(1R)-1,2-dimethylpropyl]amino}methyl)-5-fluorophenyl]-3-[1-(ethylsulfonyl)-4-piperidinyl]-1H-indole-7-carboxamide trifluoroacetate] | ≤ 10 | ≤ 1.5
16 | CCC(C)NCc1cc(F)cc(-c2cc(C(N)=O)c3[nH]cc(C4CCN(S(=O)(=O)CC)CC4)c3c2)c1 (centres unmarked) [Example 316, 3-[1-(ethylsulfonyl)-4-piperidinyl]-5-(3-fluoro-5-{[(1-methylpropyl)amino]methyl}phenyl)-1H-indole-7-carboxamide trifluoroacetate] | ≤ 10 | ≤ 1.5
17 | CCS(=O)(=O)N1CCC(c2c[nH]c3c(C(N)=O)cc(-c4cc(F)cc(CN[C@@H](C)C(C)(C)C)c4)cc23)CC1 [Example 317, 3-[1-(ethylsulfonyl)-4-piperidinyl]-5-[3-fluoro-5-({[(1S)-1,2,2-trimethylpropyl]amino}methyl)phenyl]-1H-indole-7-carboxamide trifluoroacetate] | ≤ 10 | ≤ 1.5
18 | CC[C@H](C)CNCc1cc(F)cc(-c2cc(C(N)=O)c3[nH]cc(C4CCN(S(=O)(=O)CC)CC4)c3c2)c1 [Example 318, 3-[1-(ethylsulfonyl)-4-piperidinyl]-5-[3-fluoro-5-({[(2S)-2-methylbutyl]amino}methyl)phenyl]-1H-indole-7-carboxamide trifluoroacetate] | ≤ 10 | ≤ 1.5
19 | CCC(C)CNCc1cc(F)cc(-c2cc(C(N)=O)c3[nH]cc(C4CCN(S(=O)(=O)CC)CC4)c3c2)c1 (centres unmarked) [Example 319, 3-[1-(ethylsulfonyl)-4-piperidinyl]-5-(3-fluoro-5-{[(2-methylbutyl)amino]methyl}phenyl)-1H-indole-7-carboxamide trifluoroacetate] | ≤ 10 | ≤ 1.5
20 | CCS(=O)(=O)N1CCC(c2c[nH]c3c(C(N)=O)cc(-c4cc(F)cc(CN[C@H](C)C(C)(C)C)c4)cc23)CC1 [Example 320, 3-[1-(ethylsulfonyl)-4-piperidinyl]-5-[3-fluoro-5-({[(1R)-1,2,2-trimethylpropyl]amino}methyl)phenyl]-1H-indole-7-carboxamide trifluoroacetate] | ≤ 10 | ≤ 1.5
21 | CCS(=O)(=O)N1CCC(c2c[nH]c3c(C(N)=O)cc(-c4cc(F)cc(CNCC(C)(C)C)c4)cc23)CC1 [Example 321, 5-(3-{[(2,2-dimethylpropyl)amino]methyl}-5-fluorophenyl)-3-[1-(ethylsulfonyl)-4-piperidinyl]-1H-indole-7-carboxamide trifluoroacetate] | ≤ 10 | ≤ 1.5
22 | CCS(=O)(=O)N1CCC(c2c[nH]c3c(C(N)=O)cc(-c4cc(F)cc(CNCC5CC5)c4)cc23)CC1 [Example 322, 5-(3-{[(cyclopropylmethyl)amino]methyl}-5-fluorophenyl)-3-[1-(ethylsulfonyl)-4-piperidinyl]-1H-indole-7-carboxamide trifluoroacetate] | ≤ 10 | ≤ 1.5
